ChEMBL document CHEMBL4825659, “Terpenoids from Chinese Liverworts Scapania spp” (J Nat Prod, 2021)
Activity calls are given as the source filed them. No cut-off for these calls is given here.

Assays:
[1] = Cytotoxicity against mouse Hepa1c1c7 cells incubated for 24 hrs by MTT based assay; type: functional, cell-based; settings: Hepa-1c1c7, 24 h
[2] = target: NAD(P)H dehydrogenase [quinone] 1 (Mus musculus) (UniProt Q64669); assay: Induction of quinone reductase activity in mouse Hepa1c1c7 cells at 50 uM incubated for 24 hrs by MTT based assay relative to control; type: cell-based
Sequence of NAD(P)H dehydrogenase [quinone] 1 (Mus musculus) (Q64669 whole entry): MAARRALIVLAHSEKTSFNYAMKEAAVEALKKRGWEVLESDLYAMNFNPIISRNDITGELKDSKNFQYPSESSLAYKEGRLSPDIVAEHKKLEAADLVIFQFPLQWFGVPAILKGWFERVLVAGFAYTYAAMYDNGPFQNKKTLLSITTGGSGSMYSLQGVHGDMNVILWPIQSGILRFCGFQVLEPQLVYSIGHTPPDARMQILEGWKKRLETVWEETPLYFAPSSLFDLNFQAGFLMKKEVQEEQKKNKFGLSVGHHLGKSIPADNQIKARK

## CC1(C)CC[C@@H](O)[C@]2(C)[C@@H]1C(=O)C[C@@]13C[C@H]4[C@@H](C(=O)[C@H]12)[C@]4(C)C3
[1]
  IC50: > 50 µM
[2]
  Activity: inactive

## CC(=O)O[C@@H]1C[C@H](C)[C@@]2(C)C[C@@]3(c4ccoc4)OC[C@]14C2(CC[C@@H]1O[C@@]14C)O3
[1]
  IC50: > 50 µM
[2]
  Activity: inactive

## CC(=O)O[C@@H]1C[C@H](C)[C@@]2(C)C[C@@]3(C4=CC(O)OC4=O)OC[C@]14C2(CC[C@@H]1O[C@@]14C)O3 (some centres undefined)
[1]
  IC50: > 50 µM
[2]; filed as activator
  Activity: Active

## CC(=O)O[C@@H]1C[C@H](C)[C@@]2(C)C[C@@]3(C4=CC(=O)OC4O)OC[C@]14C2(CC[C@@H]1O[C@@]14C)O3 (some centres undefined)
[1]
  IC50: > 50 µM
[2]; filed as activator
  Activity: Active

## C[C@H]1C[C@H]2O[C@@]3(C)[C@@H](O)CCC45O[C@@](c6ccoc6)(C[C@]14C)OC[C@@]253
[1]
  IC50: > 50 µM
[2]
  Activity: inactive

## C[C@H]1C[C@H]2O[C@@]3(C)[C@@H](O)CCC45O[C@@](C6=CC(=O)OC6O)(C[C@]14C)OC[C@@]253 (some centres undefined)
[1]
  IC50: > 50 µM
[2]
  Activity: inactive

## CO[C@]1(C2=CC(=O)OC2O)C[C@]2(C)[C@@H](C)C[C@@H](OC(C)=O)[C@]3(COC(C)=O)C2(CC[C@@H]2O[C@@]23C)O1 (some centres undefined)
[1]
  IC50: > 50 µM
[2]; filed as activator
  Activity: Active
